For data set [1], the target named is T1, COX-1 (Ovis aries, UniProt P05979).
T1 construct: purchased Cayman Chemical 560131
T1 sequence (P05979 25-600): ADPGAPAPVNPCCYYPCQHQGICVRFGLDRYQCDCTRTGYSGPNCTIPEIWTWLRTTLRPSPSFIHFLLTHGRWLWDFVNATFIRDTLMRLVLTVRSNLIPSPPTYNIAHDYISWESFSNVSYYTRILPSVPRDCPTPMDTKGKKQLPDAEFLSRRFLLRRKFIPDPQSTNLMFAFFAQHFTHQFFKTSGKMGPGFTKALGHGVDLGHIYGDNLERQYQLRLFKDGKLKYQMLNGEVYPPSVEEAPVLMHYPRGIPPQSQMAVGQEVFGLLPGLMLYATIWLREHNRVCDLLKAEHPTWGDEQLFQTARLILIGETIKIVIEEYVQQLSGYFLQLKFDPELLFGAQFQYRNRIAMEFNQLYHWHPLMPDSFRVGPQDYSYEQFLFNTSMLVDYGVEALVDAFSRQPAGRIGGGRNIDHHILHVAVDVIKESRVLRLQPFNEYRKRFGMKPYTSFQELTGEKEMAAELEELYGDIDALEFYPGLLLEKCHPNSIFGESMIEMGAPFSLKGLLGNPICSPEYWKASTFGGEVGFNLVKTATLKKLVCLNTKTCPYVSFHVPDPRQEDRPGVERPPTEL
Description: COX inhibitor screening assay (EIA of prostaglandins), COX-1. It is filed as biochemical. How it is done: (§1) The inhibition of COX-1 and -2 by 3-methoxypterostilbene was measured through the use of a three-day commercial assay kit. The assay relied on the quantification of the prostanoid product based on enzyme immunoassay (EIA), which uses a nonspecific antibody for prostaglandins (PGs). The constant concentration of the PG-AChE-tracer and the varying concentrations of the PGs available to bind to the antiserum is inversely proportional to the concentration of free PGs in the well. For this assay, 3-methoxypterostilbene was dissolved in DMSO over the concentration range of 1–250 μg/mL. Ibuprofen and etodolac, COX-2 preferential NSAIDs, were dissolved in DMSO and used as controls over the concentration range of 1–250 μg/mL. Reagents were prepared according to the manufacturer's instructions that accompanied the kit. The ELISA plate for this purpose was read at an absorbance of 415 nm within 10 minutes at room temperature (23 ± 1°C) using the Synergy HT multiwell plate reader and Gen5 data analysis software (Biotek Instruments Inc., Winooski, VT, USA). The assay was performed in quadruplet. For more information regarding the assay protocol, please refer to the instructions for the kit (COX Inhibitor Screening Assay Kit from Cayman Chemical—Cat. no. 560131).

Data set [2] concerns the target T2, COX-2 (Homo sapiens, UniProt P35354).
T2 construct: purchased Cayman Chemical 560131
T2 sequence (P35354 18-604): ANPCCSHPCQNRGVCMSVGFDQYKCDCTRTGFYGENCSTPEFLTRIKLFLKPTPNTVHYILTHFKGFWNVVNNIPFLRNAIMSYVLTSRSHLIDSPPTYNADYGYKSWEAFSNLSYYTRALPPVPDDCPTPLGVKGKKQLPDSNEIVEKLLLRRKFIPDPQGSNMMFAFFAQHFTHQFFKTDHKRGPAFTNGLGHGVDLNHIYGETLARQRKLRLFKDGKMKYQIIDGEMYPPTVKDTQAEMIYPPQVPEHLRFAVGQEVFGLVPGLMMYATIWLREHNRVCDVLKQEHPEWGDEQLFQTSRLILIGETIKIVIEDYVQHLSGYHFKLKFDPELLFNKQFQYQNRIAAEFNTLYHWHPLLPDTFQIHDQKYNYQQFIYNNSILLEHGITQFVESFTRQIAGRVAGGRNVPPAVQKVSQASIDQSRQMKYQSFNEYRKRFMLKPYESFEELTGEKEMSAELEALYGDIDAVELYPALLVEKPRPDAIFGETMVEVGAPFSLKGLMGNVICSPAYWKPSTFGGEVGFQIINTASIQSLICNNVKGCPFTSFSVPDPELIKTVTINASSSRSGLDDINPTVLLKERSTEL
Description: COX inhibitor screening assay (EIA of prostaglandins), COX-2. It is filed as biochemical. How it is done: as §1

The subject of data set [3] is α-glucosidase from Saccharomyces cerevisiae. Description: α-Glucosidase inhibition colorimetric assay (PNPG). It is filed as biochemical. Conditions: 0 to 200 μg/mL, n = 6.
Data set [4] has as its target T3, α-amylase from porcine pancreas type VI-B (Sus scrofa, UniProt P00690).
T3 construct: α-amylase from porcine pancreas type VI-B; purchased Sigma-Aldrich; host or cells: porcine pancreas
T3 sequence (P00690 16-511): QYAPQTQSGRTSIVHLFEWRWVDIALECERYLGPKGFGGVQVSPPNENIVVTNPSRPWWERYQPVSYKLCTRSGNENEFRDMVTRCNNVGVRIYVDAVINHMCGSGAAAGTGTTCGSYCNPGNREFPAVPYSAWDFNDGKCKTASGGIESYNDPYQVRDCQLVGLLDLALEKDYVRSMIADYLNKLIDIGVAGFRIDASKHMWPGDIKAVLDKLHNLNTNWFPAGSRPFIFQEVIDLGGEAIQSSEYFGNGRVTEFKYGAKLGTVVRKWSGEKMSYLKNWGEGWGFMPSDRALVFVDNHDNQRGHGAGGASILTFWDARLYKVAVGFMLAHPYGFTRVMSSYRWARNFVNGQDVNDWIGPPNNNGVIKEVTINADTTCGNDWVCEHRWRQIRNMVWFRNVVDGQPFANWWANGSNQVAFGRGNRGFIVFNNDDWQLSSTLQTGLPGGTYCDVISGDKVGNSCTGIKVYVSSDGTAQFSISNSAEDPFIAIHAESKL
The data set can be described thus: α-Amylase inhibition colorimetric assay (BPNPG7, amylase HR reagent). It is filed as biochemical.

The test system of data set [5] is 9 KB. On the set-up: method as in PMID 3598597. The settings on record: cited from earlier work.
For data set [6], the system named is crown-gall. On the set-up: method as in PMID 3598597. The settings on record: cited from earlier work.
The test system of data set [7] is human peripheral blood mononuclear cells. The settings on record: cited from earlier work.
The test system of data set [8] is human leukemia-derived HL60 cells. Conditions: cited from earlier work.
For data set [9] the following is noted: computer model; cited from earlier work.

The structures appear in SMILES notation. “Also recorded” adds a separate entry of the source.

Turning to `COc1cc(/C=C/c2ccc(O)c(OC)c2)cc(OC)c1` [3-methoxypterostilbene, trans-3,3′-5-trimethoxy-4′-hydro-xystilbene], the “COX-1 inhibition versus NSAIDs (in words)” value in [1] (250 μg/mL, compared with ibuprofen and etodolac) was “significantly greater activity (P < 0.05) than the NSAIDs at low doses”. For the same molecule, the “COX-1 inhibitory activity (in words)” value in [1] (1, 10 and 250 μg/mL) is “positive concentration-dependent inhibitory activity; also recorded: strong COX-1 inhibition comparable to two NSAIDs”. Also, the “COX-2 inhibition versus NSAIDs (in words)” value in [2] (10 μg/mL) is “statistically greater inhibition (P < 0.05) than etodolac at 1 μg/mL and ibuprofen at 250 μg/mL”. Besides, the “COX-2 inhibitory activity (in words)” value in data set [2] (1, 10 and 250 μg/mL) was “moderate inhibition of COX-2”. Moreover, the “α-Glucosidase inhibition (in words)” value in data set [3] was “does not appear to exhibit greater inhibition at higher concentrations”. In addition, the “α-Amylase inhibition (in words)” value in [4] (0 to 200 μg/mL, n = 6) is “relatively weak inhibition of α-amylase”. The “α-Amylase activity at the highest concentrations tested (in words)” value in data set [4] (highest concentrations tested) is recorded as “appears to increase activity of α-amylase”. In [5], the “Activity in 9 KB cytotoxicity assay compared with piceatannol” value was “significantly greater activity”. Further, in data set [6], the “Activity in crown-gall plant antitumor (potato disk) assay compared with piceatannol” value is reported as “significantly greater activity”. In [7], the “Inhibition of lipopolysaccharide-induced tissue factor expression” value was “as effective as resveratrol”. In [8], the Apoptotic-inducing activity entry is on record as “greater apoptotic-inducing activity than resveratrol”. Further, in [9], the Modeled antioxidant potency entry is “greater potency than resveratrol”.

The values above are taken from paper PMC3652196, “Pharmacometrics of 3-Methoxypterostilbene: A Component of Traditional Chinese Medicinal Plants” (Evidence-based Complementary and Alternative Medicine : eCAM, 2013).
